In the NIST ThermoML archive (doi:10.1021/acs.jced.7b00396):
± gives the expanded uncertainty stated by the source.

Conditions: for mass density: 700 kPa, Gamma attenuation method; for viscosity: Capillary tube (Ostwald / Ubbelohde) method

C1C[C@@H]2[C@H]3CC[C@H](C3)[C@@H]2C1 [exo-tetrahydrodicyclopentadiene]
Conditions	mass density [kg/m3]
239.8 K, Liquid	965.9 ± 15
266.2 K, Liquid	955.9 ± 15
290.9 K, Liquid	945.8 ± 15
307 K, Liquid	936.3 ± 15
337.1 K, Liquid	917.3 ± 15
368.4 K, Liquid	890 ± 15
391.9 K, Liquid	877.6 ± 15
428.7 K, Liquid	857.3 ± 15
468.5 K, Liquid	818.7 ± 16
483.8 K, Liquid	779.5 ± 16
510 K, Liquid	759.3 ± 15
532.4 K, Liquid	737.7 ± 17
562.1 K, Liquid	646.3 ± 18
603.4 K, Gas	25.5 ± 2.7
651.6 K, Gas	22.9 ± 2.7
682.7 K, Gas	29.4 ± 2.7
730.2 K, Gas	19.5 ± 2.8
744.7 K, Gas	19.7 ± 2.8
771.9 K, Gas	26.4 ± 2.7
803.3 K, Gas	24.4 ± 2.7
833 K, Gas	25.4 ± 2.7
873.3 K, Gas	24.4 ± 2.7

Conditions	viscosity [mPa·s]
242.7 K, 690 kPa, Liquid	10.69 ± 1.1
242.7 K, 1700 kPa, Liquid	10.73 ± 1.1
242.7 K, 3000 kPa, Liquid	10.8 ± 1.1
242.7 K, 6000 kPa, Liquid	10.82 ± 1.1
262.4 K, 690 kPa, Liquid	5.78 ± 0.58
262.4 K, 1700 kPa, Liquid	5.82 ± 0.59
262.5 K, 3000 kPa, Liquid	5.828 ± 0.59
262.5 K, 6000 kPa, Liquid	5.888 ± 0.59
303.1 K, 3000 kPa, Liquid	2.49 ± 0.25
303.1 K, 6000 kPa, Liquid	2.498 ± 0.25
303.2 K, 690 kPa, Liquid	2.479 ± 0.25
303.2 K, 1700 kPa, Liquid	2.483 ± 0.25
313.1 K, 690 kPa, Liquid	1.996 ± 0.2
313.2 K, 1700 kPa, Liquid	2.026 ± 0.2
313.2 K, 3000 kPa, Liquid	2.146 ± 0.22
313.2 K, 6000 kPa, Liquid	2.186 ± 0.22
333.1 K, 3000 kPa, Liquid	1.709 ± 0.17
333.1 K, 6000 kPa, Liquid	1.758 ± 0.18
333.2 K, 690 kPa, Liquid	1.68 ± 0.17
333.2 K, 1700 kPa, Liquid	1.701 ± 0.17
353.1 K, 690 kPa, Liquid	1.142 ± 0.11
353.1 K, 3000 kPa, Liquid	1.234 ± 0.12
353.1 K, 6000 kPa, Liquid	1.268 ± 0.13
353.2 K, 1700 kPa, Liquid	1.165 ± 0.12
373.1 K, 690 kPa, Liquid	0.8868 ± 0.089
373.1 K, 1700 kPa, Liquid	0.9068 ± 0.091
373.2 K, 3000 kPa, Liquid	0.9467 ± 0.095
373.2 K, 6000 kPa, Liquid	0.9789 ± 0.098
393 K, 3000 kPa, Liquid	0.7365 ± 0.074
393.1 K, 1700 kPa, Liquid	0.7265 ± 0.073
393.2 K, 690 kPa, Liquid	0.7065 ± 0.071
393.4 K, 6000 kPa, Liquid	0.7661 ± 0.077
412.9 K, 3000 kPa, Liquid	0.5811 ± 0.058
413.1 K, 1700 kPa, Liquid	0.5518 ± 0.055
413.1 K, 6000 kPa, Liquid	0.6028 ± 0.06
413.2 K, 690 kPa, Liquid	0.5267 ± 0.053
433.1 K, 1700 kPa, Liquid	0.4372 ± 0.044
433.1 K, 3000 kPa, Liquid	0.4776 ± 0.048
433.2 K, 690 kPa, Liquid	0.4172 ± 0.042
433.2 K, 6000 kPa, Liquid	0.4992 ± 0.05
453.1 K, 690 kPa, Liquid	0.3605 ± 0.036
453.1 K, 1700 kPa, Liquid	0.4005 ± 0.04
453.1 K, 6000 kPa, Liquid	0.4321 ± 0.043
453.2 K, 3000 kPa, Liquid	0.3903 ± 0.039
473.1 K, 6000 kPa, Liquid	0.3675 ± 0.037
473.2 K, 690 kPa, Liquid	0.3123 ± 0.031
473.2 K, 1700 kPa, Liquid	0.3003 ± 0.03
473.2 K, 3000 kPa, Liquid	0.3204 ± 0.032
493.1 K, 6000 kPa, Liquid	0.3055 ± 0.031
493.2 K, 690 kPa, Liquid	0.2255 ± 0.023
493.2 K, 1700 kPa, Liquid	0.2552 ± 0.026
493.2 K, 3000 kPa, Liquid	0.2752 ± 0.028
513.1 K, 6000 kPa, Liquid	0.2964 ± 0.03
513.2 K, 690 kPa, Liquid	0.2054 ± 0.021
513.2 K, 1700 kPa, Liquid	0.2204 ± 0.022
513.2 K, 3000 kPa, Liquid	0.2264 ± 0.023
533.2 K, 690 kPa, Liquid	0.1602 ± 0.016
533.2 K, 1700 kPa, Liquid	0.1809 ± 0.018
533.4 K, 3000 kPa, Liquid	0.1837 ± 0.018
533.4 K, 6000 kPa, Liquid	0.2139 ± 0.022
552.9 K, 690 kPa, Liquid	0.1309 ± 0.013
552.9 K, 1700 kPa, Liquid	0.1509 ± 0.015
553.3 K, 6000 kPa, Liquid	0.1899 ± 0.019
553.5 K, 3000 kPa, Liquid	0.1502 ± 0.015
573.3 K, 6000 kPa, Liquid	0.1554 ± 0.016
573.4 K, 690 kPa, Gas	0.0304 ± 0.0026
573.4 K, 1700 kPa, Liquid	0.1254 ± 0.013
573.4 K, 3000 kPa, Liquid	0.1354 ± 0.014
593.2 K, 690 kPa, Gas	0.0324 ± 0.0026
593.2 K, 1700 kPa, Gas	0.0394 ± 0.0027
593.2 K, 6000 kPa, Liquid	0.1453 ± 0.015
593.3 K, 3000 kPa, Gas	0.1154 ± 0.0032
613 K, 3000 kPa, Gas	0.1016 ± 0.0031
613.4 K, 6000 kPa, Liquid	0.1316 ± 0.013
613.6 K, 690 kPa, Gas	0.0288 ± 0.0026
613.6 K, 1700 kPa, Gas	0.0389 ± 0.0027
633.3 K, 3000 kPa, Gas	0.0977 ± 0.003
633.3 K, 6000 kPa, Liquid	0.1177 ± 0.012
633.4 K, 690 kPa, Gas	0.0338 ± 0.0026
633.4 K, 1700 kPa, Gas	0.0371 ± 0.0026
653.3 K, 690 kPa, Gas	0.0277 ± 0.0026
653.3 K, 1700 kPa, Gas	0.0328 ± 0.0026
653.4 K, 3000 kPa, Gas	0.0898 ± 0.003
653.5 K, 6000 kPa, Liquid	0.0991 ± 0.01
672.3 K, 3000 kPa, Gas	0.0804 ± 0.0029
673.2 K, 6000 kPa, Liquid	0.0956 ± 0.0096
673.3 K, 690 kPa, Gas	0.0265 ± 0.0026
673.3 K, 1700 kPa, Gas	0.0302 ± 0.0026
692.5 K, 690 kPa, Gas	0.0311 ± 0.0026
692.5 K, 1700 kPa, Gas	0.0321 ± 0.0026
692.5 K, 3000 kPa, Gas	0.0768 ± 0.0028
692.5 K, 6000 kPa, Liquid	0.0927 ± 0.0093
713.8 K, 690 kPa, Gas	0.0276 ± 0.0026
713.8 K, 1700 kPa, Gas	0.0294 ± 0.0026
713.8 K, 3000 kPa, Gas	0.0689 ± 0.0027
713.8 K, 6000 kPa, Gas	0.0889 ± 0.0029
734 K, 690 kPa, Gas	0.0303 ± 0.0026
734 K, 1700 kPa, Gas	0.0324 ± 0.0026
734 K, 3000 kPa, Gas	0.0645 ± 0.0027
734 K, 6000 kPa, Gas	0.0844 ± 0.0028
753.3 K, 690 kPa, Gas	0.0324 ± 0.0026
753.3 K, 1700 kPa, Gas	0.0352 ± 0.0026
753.3 K, 3000 kPa, Gas	0.0628 ± 0.0027
753.3 K, 6000 kPa, Gas	0.0828 ± 0.0028

CCCCCCCC [octane]
5100 kPa, Liquid
Conditions	viscosity [mPa·s]
303.2 K	0.5014 ± 0.0046
353.1 K	0.3078 ± 0.0037
403.2 K	0.207 ± 0.0031
453.1 K	0.1465 ± 0.0028
503 K	0.1049 ± 0.0027
553.4 K	0.0692 ± 0.0026
